Test results: patent publication US5767139A, “Indoles which have steroid 5-α reductase inhibitory activity” (Pfizer, Inc., priority 1992, dated 1998)

tested on: mice; test: Toxicity Study, oral administration to mice; assay type: in vivo; conditions: up to a dose of 1000 mg/kg, throughout the duration of the study

| Compound | appearance and behaviour |
| --- | --- |
| CC(C)Cc1ccc(C2(C)Oc3ccc(C(=O)c4cn(CCCC(=O)O)c5ccccc45)cc3O2)cc1 (single isomer, unassigned; (-)) [Example 4, (-)-4-[3-([2-methyl-2-(4-[2-methylpropyl]phenyl)-1,3-benzodioxolan-5-yl]carbonyl)indol-1-yl]butanoic acid] | normal appearance and behaviour |

biological target: steroid 5α-reductase; test: in vitro steroid 5α-reductase inhibitory activity using ventral prostate tissue from male rats; assay type: biochemical; conditions: rat ventral prostate particulate; [3H]-testosterone substrate, pH 6.5, 37° C., 30 minutes
Description: The compounds of the formula (I) may be tested in vitro for steroid 5α-reductase inhibitory activity using prostate tissue from rats or humans as follows:
(i) The compounds of the formula (I) may be tested for their potency in inhibiting rat steroid 5α-reductase using ventral prostate tissue from male rats. In determining inhibitory potency against rat prostatic 5α-reductase the following procedure was employed:
Rat prostates were minced into small pieces. The tissue was homogenised in Buffer A (20 mM sodium phosphate, pH 6.5, buffer containing 0.32M sucrose and 1 mM dithiothreitol) with a Brinkman Polytron (Kinematica, Luzern, GmBH), and then homogenised with a motor driven (1000 rpm) Potter Elvehjem (teflon-to-glass) homogeniser. Prostate particles were obtained by centrifugation at 105,000 G for 60 minutes. The pellet was washed in 4 volumes of Buffer A and recentrifuged at 105,000 G. The resulting pellet was dispersed in Buffer A (1 ml per g of prostate tissue originally used) with a motor driven Potter Elvehjem homogeniser as described above. The particulate suspension was stored as 1 ml samples at -70° C.
The following components, dissolved in Buffer B (40 mM sodium phosphate buffer, pH 6.5), were added to test tubes: 500 μl of [^3 H]-testosterone (1 μCi, 1 nmol; Du Pont, NEN Research Products, Stevenage, U.K.), 100 μl of 0.5 mM NADPH, a compound of the formula (I) dissolved in 5 μl of dimethyl sulphoxide, and Buffer B to give a final reaction volume of 1 ml. The mixture was warmed to 37° C. and the reaction started by addition of an aliquot of prostate particulate suspension. The reaction mixture was incubated at 37° C. for 30 minutes and then quenched by addition with vigorous mixing of 2 ml of ethyl acetate containing 20 μg each of testosterone and 5α-dihydrotestosterone as carriers. The aqueous and organic layers were separated by centrifugation at 2000 G for 10 minutes. The organic layer was transferred to a second test tube and evaporated to dryness under nitrogen. The residue was dissolved in 50-80 μl of absolute ethanol and spotted onto a silica gel 60 F254 TLC plate (E. Merck, Darmstadt, Germany) and developed in chloroform:acetone (185:15).
The radiochemical content in the bands of the substrate (testosterone) and the product (5α-dihydrotestosterone) were determined with a RITA Radio TLC Analyser (Raytest Instruments Ltd., Sheffield, U.K.). The percent of recovered radiolabel converted to 5α-dihydrotestosterone was calculated and used to determine enzyme activity. All incubations were conducted so that no more than 15% of substrate (testosterone) was converted to product.
The experimentally obtained data for a range of inhibitor concentrations was computer fitted to a sigmoidal dose-response curve and concentrations of compound giving 50% inhibition of 5α-reductase activity (IC50 's) were calculated using a SIGFIT program (De Lean, A., Munson, P. J. and Rodbard, D., American Journal of Physiology, 235, E97 (1978)).
A selection of compounds of the formula (I) was tested in vitro for steroid 5α-reductase inhibitory activity using ventral prostate tissue from male rats according to the procedure outlined on pages 35 to 37 of the description.

| Compound | IC50 |
| --- | --- |
| CC1(c2ccccc2)Oc2ccc(C(=O)c3cn(CCCC(=O)O)c4ccccc34)cc2O1 (centres unmarked) [Example 14] | 21.1 nM |
| O=C(O)CCCn1cc(C(=O)c2ccc3c(c2)OC2(CCC(c4ccccc4)C2)O3)c2ccccc21 (centres unmarked) [Example 31] | 5.56 nM |
| CCCc1ccc(C2(c3ccc(CCC)cc3)Oc3ccc(C(=O)c4cn(CCCC(=O)O)c5ccccc45)cc3O2)cc1 [Example 5] | 33.7 nM |
| CC(C)Cc1ccc(C2(C)Oc3ccc(C(=O)c4cn(CCCC(=O)O)c5ccccc45)cc3O2)cc1 (single isomer, unassigned; (-)) [Example 4, (-)-4-[3-([2-methyl-2-(4-[2-methylpropyl]phenyl)-1,3-benzodioxolan-5-yl]carbonyl)indol-1-yl]butanoic acid] | 10.3 nM |
| O=C(O)CCCn1cc(C(=O)c2ccc3c(c2)OC(c2ccc(F)cc2)(c2ccc(F)cc2)O3)c2ccccc21 [Example 7] | 10.7 nM |
| O=C(O)CCCCn1cc(C(=O)c2ccc3c(c2)OC(c2ccccc2)(c2ccccc2)O3)c2ccccc21 [Example 34] | 264 nM |
| Cc1c(C(=O)c2ccc3c(c2)OC(c2ccccc2)(c2ccccc2)O3)c2ccccc2n1CCCC(=O)O [Example 39] | 270 nM |
| CCCc1ccc(C2(CC)Oc3ccc(C(=O)c4cn(CCCC(=O)O)c5ccccc45)cc3O2)cc1 (centres unmarked) [Example 27] | 1.41 nM |
| Cc1c(C(=O)c2ccc3c(c2)OC(C)(c2ccc(CC(C)C)cc2)O3)c2ccccc2n1CCCC(=O)O (centres unmarked) [Example 40] | 260 nM |
| CC(C)Cc1ccc(C2(C)Oc3ccc(C(=O)c4cn(CCCC(=O)O)c5ccccc45)cc3O2)cc1 (racemic) [Example 2, 4-[3-([2-methyl-2-(4-[2-methylpropyl]phenyl)-1,3-benzodioxolan-5-yl]carbonyl)indol-1-yl]butanoic acid] | 11.4 nM |
| O=C(O)CCCn1cc(C(=O)c2ccc3c(c2)OC(c2cccs2)(c2cccs2)O3)c2ccccc21 [Example 15] | 5.29 nM |
| CCCCC1(c2ccc(CCC)cc2)Oc2ccc(C(=O)c3cn(CCCC(=O)O)c4ccccc34)cc2O1 (centres unmarked) [Example 8] | 2.9 nM |
| COc1ccc(C2(C)Oc3ccc(C(=O)c4cn(CCCC(=O)O)c5ccccc45)cc3O2)cc1 (centres unmarked) [Example 29] | 3.67 nM |
| CC1(C2CCCCC2)Oc2ccc(C(=O)c3cn(CCCC(=O)O)c4ccccc34)cc2O1 (centres unmarked) [Example 19] | 11 nM |
| O=C(O)CCCn1cc(C(=O)Cc2ccc3c(c2)OC(c2ccc(Cl)cc2)(c2ccc(Cl)cc2)O3)c2ccccc21 [Example 37] | 100 nM |
| O=C(O)CCCn1cc(C(=O)c2ccc3c(c2)OC(c2ccccc2)(c2ccccc2)O3)c2ccccc21 [Example 1] | 2.7 nM |
| O=C(O)CCCn1cc(C(=O)c2ccc3c(c2)OC(c2ccc(Cl)cc2)(c2ccc(Cl)cc2)O3)c2ccccc21 [Example 6] | 15.6 nM |
| CC1(c2ccc(OCc3ccccc3)cc2)Oc2ccc(C(=O)c3cn(CCCC(=O)O)c4ccccc34)cc2O1 (centres unmarked) [Example 9] | 67.5 nM |
| O=C(O)CCCn1cc(C(=O)c2ccc3c(c2)OC2(CCCc4ccccc42)O3)c2ccccc21 (centres unmarked) [Example 10] | 7.91 nM |
| CC(C)Cc1ccc(C2(C)Oc3ccc(CC(=O)c4cn(CCCC(=O)O)c5ccccc45)cc3O2)cc1 (centres unmarked) [Example 36] | 251 nM |
| O=C(O)CCCn1cc(C(=O)Cc2ccc3c(c2)OC(c2ccccc2)(c2ccccc2)O3)c2ccccc21 [Example 35] | 42.6 nM |
| CCCc1ccc(C2(c3ccc(OC)cc3)Oc3ccc(C(=O)c4cn(CCCC(=O)O)c5ccccc45)cc3O2)cc1 (centres unmarked) [Example 45] | 7.84 nM |
